d = 2'-deoxy (DNA); r = 2'-OH (RNA)
Assays:
[1] = test system: stomach cancer cell line NUGC3; assay: Cancer cell invasion with peptide fragment; type: cell-based, human; conditions: NUGC3, insert, 48 hours, FIG. 10
Procedure: (§1) Next, in order to confirm the cell invasive ability of MMP9, a cell culture insert was fixed in a 24-well plate. Matrigel was diluted 20-fold, and 100 μl of diluent was added. The reaction was carried out at 37° C. for 1 hour or longer. 700 μl of medium containing 10% serum was added to a 24-well plate under the insert. MMP knockdown cells with the above siRNA were added to the insert according to 300 μl of serum-free medium to a concentration of 5×10^5. After 48 hours, the insert was removed and cells were fixed in 10% formalin solution. Cells remaining inside the insert were removed with a cotton swab and washed with water. Cells were stained with 0.4% Sulforhodamine B solution for 1 hour, washed with acetic acid, and dried. Then, a photograph was taken with an optical microscope, the membrane on the insert was cut, and Sulforhodamine B in stained cells was dissolved in 10 mM Tris solution, and absorbance was measured at 540 nm using an ELISA plate reader (FIG. 2C).
A method similar to Example 1-2 was performed for stomach cancer cell invasion experiment by the VGLL1 peptide fragment.
The stomach cancer cell line NUGC3 was placed in an insert together with the peptide fragment. After 48 hours of cell culture, the insert was fixed in a 10% formalin solution, and the downwardly migrated cells were confirmed by staining with 0.4% Sulforhodamine B solution.

[2] = test system: stomach cancer cell line NUGC3; assay: Cancer cell proliferation, real-time cell analysis (IncuCyte Zoom); type: cell-based, human; conditions: FIG. 9
Procedure: Specifically, the stomach cancer cell line NUGC3 was cultured in a 96-well plate. The next day, the cells were treated with the peptide fragment. The cell proliferation was analyzed using a real-time cell analysis system (product name: IncuCyte Zoom).

MMP9 [3] = assay: MMP9 protein expression induced by TGF-β, western blot, peptide treatment; type: cell-based, human; conditions: NUGC3, TGF-β and peptide for 18 hours, FIG. 8
Procedure: To evaluate whether the peptide fragment that interferes the binding between VGLL1 and TEAD4 can inhibit MMP9 expression in human stomach cancer cells, peptides shown in Table 6 were prepared to examine their effects on MMP9 expression.
Experiments were performed using the synthetic peptide fragments. The stomach cancer NUGC3 cells were cultured in a 6-well plate. The next day, cells were cultured in serum-free cell culture for 24 hours. TGF-β and a control peptide fragment (SEQ ID NO: 12), a peptide fragment containing serine at position 84 of VGLL1 (SEQ ID NO: 27), and a mutant peptide fragment containing alanine at position 84 of VGLL1 (SEQ ID NO: 28) were treated into cells for 18 hours. Proteins were extracted from the cells using a Ripa buffer and were separated by electrophoresis. Thereafter, protein expression of genes was confirmed by using an antibody on the polyvinylidene fluoride membrane.

[4] = test system: stomach cancer cell line NUGC3; assay: Cancer cell proliferation with peptide variants, real-time cell analysis (Incucyte); type: cell-based, human; conditions: NUGC3, 60 μM peptide, FIG. 11
Procedure: The stomach cancer cell line NUGC3 was cultured in a 96-well plate, and the next day, the cells were treated with 60 μM peptide. The cell proliferation was analyzed using a real-time cell analysis system (product name: Incucyte).
FIG. 11A is a graph of real-time cell proliferation, and FIG. 11B is a graph showing cell proliferation after 4 days based on 100% control peptide.

MMP9 promoter = MMP9 promoter luciferase activity after TGF-β treatment; type: cell-based, human; conditions: NUGC3, 20 nM siRNA, TGF-β 18 hours, compared to control (siSC), FIG. 3
Procedure: In order to determine whether VGLL1 and TEAD4 were involved in MMP9 promoter activity in NUGC3 human stomach cancer cell line, the MMP9 promoter luciferase activity was investigated after TGF-β treatment.
Specifically, the stomach cancer cell NUGC3 was cultured in a 48-well plate at a concentration of 2× 10^4 cells/well. The next day, the MMP9 gene-inserted pGL4.17-luciferase vector was transfected into cells using Lipofectamine 2000. After 24 hours, 20 nM siSC (SEQ ID NO: 23: 5′-CCUACGCCACCAAUUUCGUdTdT-3′) siVGLL1 (SEQ ID NO 24: 5′-[…]dTdT-3′), siTEAD4 (SEQ ID NO 25: 5′-GACACUACUCUUACCGCAUdTdT-3′), and siYAP (SEQ ID NO 26: 5′-CCACCA AGCUAGAUAAAGAAAdTdT-3′) were mixed with Lipofectamine 2000, and the cells were treated with the mixture. The next day, the cells were treated with TGF-β for 18 hours. Thereafter, the cells were disrupted using a passive lysis buffer. Then, after centrifuging cells, a supernatant was obtained. […] At this time, the degree of luminescence of the cells was checked using Victor X Light.

MMP9 [5] = assay: MMP9 mRNA expression after TGF-β treatment, RT-PCR; type: cell-based, human; conditions: NUGC3, 20 nM siRNA, TGF-β 18 hours, compared to control (siSC), FIG. 4
Procedure: In order to determine whether VGLL1 and TEAD4 were involved in MMP9 mRNA expression in NUGC3 human stomach cancer cells, MMP9 mRNA expression was examined by RT-PCR after TGF-β treatment.
Specifically, the stomach cancer cell line NUGC3 was cultured in a 6-well plate. The next day, 20 nM siSC, siVGLL1, siTEAD4, and siYAP were mixed with Lipofectamine 2000, and the cell line was treated with the mixture. The next day, after treatment with TGF-β for 18 hours, mRNA was extracted from the cells and complementary DNA was synthesized, followed by RT-PCR.

[6] = test system: stomach cancer cell line NUGC3; assay: Cell proliferation after siRNA, Sulforhodamine B staining; type: cell-based, human; conditions: NUGC3, 20 nM siRNA, 48 hours, FIG. 2B
Procedure: In addition, in order to confirm the cell proliferation ability of MMP9, the stomach cancer cell line NUGC3 was cultured in a 96-well plate. The next day, cells were treated with the mixture of Lipofectamine 2000 and 20 nM siSC or siMMP9. After 48 hours, cells were fixed using 1% formalin solution. Thereafter, the cells were stained with 0.4% Sulforhodamine B solution for 1 hour, washed with acetic acid, and dried. Then, the cells were dissolved in a 10 mM Tris solution, and absorbance was measured at 540 nm using an ELISA plate reader (FIG. 2B).

[7] = test system: stomach cancer cell line NUGC3; assay: Matrigel cell invasion after siRNA; type: cell-based, human; conditions: NUGC3, siRNA knockdown cells, Matrigel insert, 48 hours, FIG. 2C
Procedure: as §1

MMP9 [8] = assay: MMP9 knockdown by siRNA, RT-PCR; type: cell-based, human; conditions: NUGC3, 20 nM siRNA, 48 hours, FIG. 2A
Procedure: Specifically, the stomach cancer cells line NUGC3 was cultured in a 6-well plate overnight, and then treated with the mixture of Lipofectamine 2000 and 20 nM siSC or siMMP9 (SEQ ID NO: 22) and. After 48 hours, mRNA was extracted from the cells and complementary DNA was synthesized, followed by RT-PCR using the MMP9 primer (FIG. 2A).

MMP9 [9] = assay: MMP9 expression by TGF-β treatment, RT-PCR; type: cell-based, human; conditions: NUGC3, RT-PCR, after 6 hours of TGF-β treatment, FIG. 1
Procedure: In order to confirm the expression change of MMP9 according to TGF-β treatment in stomach cancer cell lines, the human stomach cancer cell line NUGC3 was treated with TGF-β at each time period, then mRNA was extracted from the cells, and complementary DNA was synthesized. Then RT-PCR was performed using Matrix metalloproteinase 9 (MMP9) primers (Table 4).

stomach cancer cells = assay: Proliferation of various cancer cells: stomach cancer; type: cell-based; conditions: 60 μM peptide; NUGC3, AG5, NCI-N87, SNU484, MKN1; FIG. 12
Procedure: (§2) In order to confirm the various cancer cell proliferation inhibitory effects of the variant of S84 VGLL1 peptide fragment, the VGLL1 S84 peptide sequence represented by SEQ ID NO: 27 was treated into various cancer cell lines.
(§3) Specifically, the cancer cells of Table 8 were cultured in a 96-well plate and treated with 60 μM peptide on the next day, and cell proliferation was analyzed using a real-time cell analysis system (product name: IncuCyte Zoom).

lung cancer cells = assay: Proliferation of various cancer cells: lung cancer; type: cell-based; conditions: 60 μM peptide; A549, H1650, H1299; FIG. 12
Procedure: as §2, §3

breast cancer cells = assay: Proliferation of various cancer cells: breast cancer; type: cell-based; conditions: 60 μM peptide; MCF7, SKBR3; FIG. 12
Procedure: as §2, §3

colorectal cancer cells = assay: Proliferation of various cancer cells: colorectal cancer; type: cell-based; conditions: 60 μM peptide; SW620, HCT116, WiDr; FIG. 12
Procedure: as §2, §3

liver cancer cells = assay: Proliferation of various cancer cells: liver cancer; type: cell-based; conditions: 60 μM peptide; HepG2, SNU354; FIG. 12
Procedure: as §2, §3

ovarian cancer cells = assay: Proliferation of various cancer cells: ovarian cancer; type: cell-based; conditions: 60 μM peptide; SK-OV3; FIG. 12
Procedure: as §2, §3

cervical cancer cells = assay: Proliferation of various cancer cells: cervical cancer; type: cell-based; conditions: 60 μM peptide; Hela; FIG. 12
Procedure: as §2, §3

prostate cancer cells = assay: Proliferation of various cancer cells: prostate cancer; type: cell-based; conditions: 60 μM peptide; FIG. 12
Procedure: as §2, §3

[10] = target: T1, GFP-TEAD4, expressed from the GFP-TEAD4 vector (UniProt Q15561 1-434); assay: co-immunoprecipitation with HA antibody agarose, western blot with GFP antibody
T1 construct: Detected with GFP antibody in the HA immunoprecipitate; also called transcription factor TEAD4; not shown: GFP tag
Procedure: Specifically, the GFP-TEAD4 vector and pcDNA3-HA (EV), pcDNA3-HA-VGLL1 (WT), pcDNA3-HA-VGLL1-S50A (S50A mutation), pcDNA3-HA-VGLL1-S84A (S84A mutation), and pcDNA3-HA-VGLL1-S124A (S124A mutation) were mixed with Turbofect. The mixture was transformed to the cell lines cultured for 24 hours. After 48 hours, the protein was extracted from the cells using a Ripa buffer. The extracted protein was subjected to immunoprecipitation using agarose bound with HA antibody and separated by electrophoresis. Thereafter, western blot analysis was performed using an antibody on the polyvinylidene fluoride membrane.

T1 sequence (Q15561 whole entry): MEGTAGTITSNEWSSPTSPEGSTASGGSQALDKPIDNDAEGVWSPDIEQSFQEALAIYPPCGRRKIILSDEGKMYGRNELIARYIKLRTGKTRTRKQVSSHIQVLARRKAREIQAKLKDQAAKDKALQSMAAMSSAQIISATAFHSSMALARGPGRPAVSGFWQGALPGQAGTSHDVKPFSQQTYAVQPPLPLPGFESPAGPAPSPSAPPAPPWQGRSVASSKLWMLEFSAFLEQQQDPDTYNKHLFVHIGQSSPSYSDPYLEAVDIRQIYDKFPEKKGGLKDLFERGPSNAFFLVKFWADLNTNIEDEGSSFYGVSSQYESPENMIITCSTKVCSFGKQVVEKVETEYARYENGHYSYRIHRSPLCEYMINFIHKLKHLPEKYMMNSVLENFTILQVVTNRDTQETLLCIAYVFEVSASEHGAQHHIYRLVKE

Molecule: YGRKKRRQRRRPNQWRYSAPWTKPQP (HIV TAT domain linked; Tat-VGLL1(S84A)) [VGLL1 (S84A), reference compound]
- inhibition of cancer cell invasion [1]: did not exhibit such an effect
- inhibition of cancer cell proliferation [2]: did not have any effect
- increased MMP9 expression by TGF-β (MMP9 [3]): not affected

Molecule: YGRKKRRQRRR-PNQWRYSSPWAKPQP (YGRKKRRQRRRPNQWRYSSPWAKPQP; HIV TAT sequence linked; Tat-VGLL1(T87A)) [VGLL1 T87A]
- inhibition of cancer cell proliferation [4]: excellent effect in inhibiting cancer cell proliferation

Molecule: 5′-GACACUACUCUUACCGCAUdTdT-3′ [siTEAD4]
- MMP9 promoter activity increased by TGF-β (MMP9 promoter): decreased
- MMP9 mRNA expression increased by TGF-β (MMP9 [5]): decreased

Molecule: 5′-CCACAACAUCACCUAUUGGAUdTdT-3′ [siMMP9]
- cell viability [6]: greatly reduced cell viability
- cell invasiveness [7]: greatly reduced cell invasiveness
- expression of MMP9 (MMP9 [8]): reduced expression of MMP9

Molecule: 5′-AGCCUAUAAAGACGGAAUGGAAUdTdT-3′ (sense AGCCUAUAAAGACGGAAUGGAAUTT; sugars from the 5' end r23 d2, backbone not given here) [siVGLL1, siRNA against VGLL1]
- MMP9 promoter activity increased by TGF-β (MMP9 promoter): decreased
- MMP9 mRNA expression increased by TGF-β (MMP9 [5]): decreased

Molecule: YGRKKRRQRRR-PNQWRYSSAWTKPQP (YGRKKRRQRRRPNQWRYSSAWTKPQP; HIV TAT sequence linked; Tat-VGLL1(P85A)) [VGLL1 P85A]
- inhibition of cancer cell proliferation [4]: excellent effect in inhibiting cancer cell proliferation

Molecule: YGRKKRRQRRR-YSSPWTK (YGRKKRRQRRRYSSPWTK; HIV TAT sequence linked; Tat-VGLL1(S84-S)) [VGLL1 S84-S]
- inhibition of cancer cell proliferation [4]: excellent effect in inhibiting cancer cell proliferation

Molecule: Transforming growth factor-β [TGF-β]
- expression of MMP9 (MMP9 [9]): increased

Molecule: YGRKKRRQRRRPNQWRYSSPWTKPQP [VGLL1 (S84)]
- inhibition of cancer cell proliferation [4]: excellent effect in inhibiting cancer cell proliferation
- inhibition of proliferation of stomach cancer cells (stomach cancer cells): excellent effect in inhibiting the proliferation
- inhibition of proliferation of lung cancer cells (lung cancer cells): excellent effect in inhibiting the proliferation
- inhibition of cancer cell invasion [1]: exhibited an effect of inhibiting cancer cell invasion
- inhibition of proliferation of breast cancer cells (breast cancer cells): excellent effect in inhibiting the proliferation
- inhibition of proliferation of colorectal cancer cells (colorectal cancer cells): excellent effect in inhibiting the proliferation
- inhibition of cancer cell proliferation [2]: exhibited an effect of inhibiting cancer cell proliferation
- inhibition of proliferation of liver cancer cells (liver cancer cells): excellent effect in inhibiting the proliferation
- inhibition of proliferation of ovarian cancer cells (ovarian cancer cells): excellent effect in inhibiting the proliferation
- increased MMP9 expression by TGF-β (MMP9 [3]): reduced
- inhibition of proliferation of cervical cancer cells (cervical cancer cells): excellent effect in inhibiting the proliferation
- inhibition of proliferation of prostate cancer cells (prostate cancer cells): excellent effect in inhibiting the proliferation

Molecule: YGRKKRRQRRR (HIV-1 Tat) [Control peptide]
- inhibition of cancer cell proliferation [2]: did not have any effect

B1: HA-VGLL1-S84A, expressed from pcDNA3-HA-VGLL1-S84A (other)
chain: MEEMKKTAIRLPKGKQKPIKTEWNSRCVLFTYFQGDISSVVDEHFSRALSNIKSPQELTPSSQSEGVMLKNDDSMSPNQWRYSAPWTKPQPEVPVTNRAANCNLHVPGPMAVNQFSPSLARRASVRPGELWHFSSLAGTSSLEPGYSHPFPARHLVPEPQPDGKREPLLSLLQQDRCLARPQESAARENGNPGQIAGSTGLLFNLPPGSVHYKKLYVSRGSASTSLPNETLSELETPGKYSLTPPNHWGHPHRYLQHL
notes: Serine 84 of VGLL1 replaced with alanine by site-directed mutagenesis in the pcDNA3-HA-VGLL1 vector; also called S84A mutation; not shown: HA tag from the pcDNA3-HA vector
- binding result [10]: no binding
